Values of other authors, collected in patent publication US6399592B1, “Bishphosphonate/estrogen synergistic therapy for treating and preventing bone loss” (Merck & Co., Inc., priority 1992, dated 2002).

How the values were obtained:
bone mineralization = conditions: rats; long term
[1] = tested on: bone loss in ovaricetomized rats; conditions: in combination with estrogen

SMILES: CC(O)(P(=O)([O-])O)P(=O)([O-])O.[Na+].[Na+] [etidronate, (1-hydroxyethylidene)bisphosphonic acid, disodium salt]
- effects on bone mineralization (bone mineralization): long term adverse effects on bone mineralization

SMILES: O=P([O-])(O)C(O)(Cc1cccnc1)P(=O)(O)O.[Na+] [risendronate, sodium trihydrogen [1-hydroxy-2-(3-pyridinyl)ethylidene]bisphosphonate]
- effect on bone loss [1]: positive effect on bone loss
